{"source": "patent US20110165649A1", "about": "“METHODS AND COMPOSITIONS TO IMPROVE THE HEALTH OF PLANTS, ANIMALS AND MICROBES BY MANIPULATING PROTEIN ENTRY INTO SYMBIONTS AND THEIR HOSTS” (priority 2010, published 2011)", "key": {"[1]": {"tested_on": "soybean root suspension culture cells / soybean root tips", "assay": "Binding and entry of fluorescent lipid-binding fusion proteins, soybean root cells", "type": "cell-based", "settings": "1 mg/ml in 25 mM MES pH 5.8, 4° C., suspension culture cells 6 hr or root tips 12 hr", "method": "B, Detection of PI-3-P but not PI-4-P on the surface of soybean cells. PEPP1-GFP or FAPP1-GFP proteins (1 mg/ml in 25 mM MES pH 5.8) were incubated with soybean root suspension culture cells for 6 hr or with soybean root tips for 12 hr at 4° C. then washed for 2 hr with 25 mM MES pH 5.8, then plasmolyzed with 0.8M Mannitol (suspension culture cells) or 4M NaCl (roots) for 30 minutes, before being photographed. Left panels show fluorescence image; right panels show the matching light micrograph. Plasma membranes are indicated by the white arrow heads."}, "[2]": {"tested_on": "Human lung adenocarcinoma cells A549", "assay": "Binding and entry of fluorescent lipid-binding fusion proteins, human lung cells", "type": "cell-based", "settings": "1 mg/ml in DPBS", "method": "C, Detection of PI-3-P but not PI-4-P on the surface of human lung cells PEPP1-mCherry or FAPP1-mCherry proteins [1 mg/ml in Dulbecco's Phosphate Buffer Saline (Ca^+2/Mg^+2 free) (DPBS; Gibco)] were incubated with Human lung adenocarcinoma cells A549 (ATCC CCL-185) for 8 hr at 4° C. or 37° C. then washed twice briefly with DPBS, before being photographed. Left panels show fluorescence image; right panels show the matching light micrograph. […] FIGS. 1B and C were adapted from FIGS. 3 and 5 respectively from Kale et al 2010. External lipid PI-3-P mediates entry of eukaryotic pathogen effectors into plant and animal host cells. Cell 142:284-295."}, "P. sojae hyphae": {"tested_on": "P. sojae hyphae", "assay": "Binding and entry of fluorescent lipid-binding fusion proteins, P. sojae hyphae, confocal microscopy", "type": "cell-based, Phytophthora sojae", "method": "A, Phosphatidylinositol-4-phosphate (PI-4-P) on the surface of P. sojae membranes mediates selective protein entry. Phosphatidylinositol-4-phosphate adaptor protein-1 (FAPP1)-mCherry, FAPP1-GFP, mCHerry alone or phosphatidylinositol-3-phosphate-binding PH-domain protein-1 (PEPP1)-GFP proteins (1 mg/ml) were incubated together with P. sojae hyphae for 12 hr, then washed extensively. Left panels show fluorescence image; right panels show the matching light micrograph.\nTo test for the presence of PI-3-P and PI-4-P on P. sojae hyphae, and the ability of those phosphoinositides to carry binding proteins into the hyphae, the pleckstrin-homology (PH) domains of the human proteins phosphatidylinositol-3-phosphate-binding PH-domain protein-1 (PEPP1) and phosphatidylinositol-4-phosphate adaptor protein-1 (FAPP1), respectively, were utilized (Dowler et al., 2000). […] To create biosensors capable of detecting PI-3P and PI-4-P in vivo, the PH domain of PEPP1 was fused to green fluorescent protein (GFP) and the PH domain of FAPP1 was fused to the modified red fluorescent protein, mCherry. (Sequences of the nucleic acids used for the production of these proteins, and the amino acid sequences corresponding to the same, are presented in FIGS. 6 A and B ([…]) and FIGS. 7 A and B (GST-FAPP1-mCherry. PEPP1-GFP and FAPP1-mCherry proteins (1 mg/ml in 25 mM 2-(N-morpholino)ethanesulfonic acid (MES) pH 5.8) were incubated with P. sojae hyphae for 6 hr at 25° C. then washed for 30 min with 25 mM MES pH 5.8, before being photographed using a Zeiss LSM510 laser scanning confocal microscope with an argon laser excitation wavelength of 488 nm for GFP or with a HeNe laser at a wavelength of 543 nm for mCherry."}, "[3]": {"settings": "1 mg/ml in 25 mM MES pH 5.8, 6 hr at 25° C., confocal microscopy"}, "[4]": {"settings": "hyphae stained simultaneously with PEPP1-GFP and FAPP1-mCherry"}}, "note": "“Also recorded” adds a separate entry of the source.", "data": [{"substance": "FAPP1-mCherry: PH domain of human FAPP1 (PI-4-P-binding) fused to the modified red fluorescent protein mCherry; SEQ ID NO: 8", "values": [{"measurement": "entry into soybean cells", "setting": "[1]", "value": "not"}, {"measurement": "binding to the surface of soybean cells", "setting": "[1]; plasmolyzed", "value": "not"}, {"measurement": "binding to the surface of human A549 cells", "setting": "[2]; 8 hr at 4° C. (endocytosis inhibited)", "value": "not and neither binds to the surface of the cells and does neither"}, {"measurement": "entry into human A549 cells", "setting": "[2]; 8 hr at 37° C. (endocytosis active)", "value": "not and nor enters the cells and does neither"}, {"measurement": "binding to the membrane of P. sojae hyphae", "setting": "P. sojae hyphae; [3]", "value": "bound to the membrane of P. sojae hyphae"}, {"measurement": "entry into P. sojae hyphae", "setting": "P. sojae hyphae; [3]", "value": "entered into the cells in abundance; also recorded: entered P. sojae hyphae"}, {"measurement": "cellular entry, P. sojae hyphae", "setting": "P. sojae hyphae; [4]", "value": "cellular entry"}, {"measurement": "membrane binding, P. sojae hyphae", "setting": "P. sojae hyphae; [4]", "value": "strong membrane binding"}]}]}
